Test results published in patent US8716273B2, “N-(amino-heteroaryl)-1H-pyrrolopyridine-2-carboxamides derivatives preparation thereof and their use in therapy” (SANOFI, priority 2006, dated 2014).

Key:
TRPV1 receptors = target: T1, TRPV1 receptors (Mus musculus, UniProt Q704Y3); experiment: Mouse cornea irritation test (capsaicin-induced eye rubbing); format: in vivo; conditions: compound 500 μM, 2 μl local application to the cornea 10 minutes before 2 μl of 160 μM capsaicin, rubbings counted for 2 minutes
T1 construct: from tissue; host or cells: cornea of the living mouse (C-fibre innervation)
T1 sequence (Q704Y3 whole entry): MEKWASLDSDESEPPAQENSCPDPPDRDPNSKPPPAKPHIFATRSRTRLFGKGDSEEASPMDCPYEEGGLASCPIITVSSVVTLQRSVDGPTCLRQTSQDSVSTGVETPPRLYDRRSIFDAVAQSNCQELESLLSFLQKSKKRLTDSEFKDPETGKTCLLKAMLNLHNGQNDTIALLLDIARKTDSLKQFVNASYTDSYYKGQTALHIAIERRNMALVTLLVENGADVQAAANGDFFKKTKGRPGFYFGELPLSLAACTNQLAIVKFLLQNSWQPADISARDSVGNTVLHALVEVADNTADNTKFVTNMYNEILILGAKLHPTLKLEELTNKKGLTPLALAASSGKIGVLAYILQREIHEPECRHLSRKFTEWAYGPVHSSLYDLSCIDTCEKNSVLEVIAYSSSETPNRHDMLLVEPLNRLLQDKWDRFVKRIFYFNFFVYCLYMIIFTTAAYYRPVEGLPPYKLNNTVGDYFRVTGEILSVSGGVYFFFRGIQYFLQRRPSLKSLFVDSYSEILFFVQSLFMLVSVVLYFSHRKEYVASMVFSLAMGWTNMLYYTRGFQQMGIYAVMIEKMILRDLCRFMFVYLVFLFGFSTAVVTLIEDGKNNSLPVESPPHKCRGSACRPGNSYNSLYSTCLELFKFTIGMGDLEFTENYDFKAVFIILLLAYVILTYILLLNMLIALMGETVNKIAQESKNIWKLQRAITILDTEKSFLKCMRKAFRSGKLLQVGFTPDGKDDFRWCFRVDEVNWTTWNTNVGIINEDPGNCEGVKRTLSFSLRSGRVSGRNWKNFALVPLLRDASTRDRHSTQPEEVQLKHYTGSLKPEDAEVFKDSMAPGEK
Experimental: Mouse Cornea Irritation Test
The irritant nature of capsaicin is easily appreciated at the level of the cornea since this organ is one of the most innervated with the C-fibres. In this context, according to preliminary experiments, the application of a very small amount of capsaicin (2 μl at a concentration of 160 μM) to the surface of the cornea of an animal leads to a certain number of stereotypical behaviors associated with irritation, which are easily listed. These include: blinking, rubbing of the instilled eye by the ipsilateral forepaw, rubbing of the face with both forepaws, scratching of the ipsilateral face by the hindpaw. […] Moreover, its appearance is also normal. […] It can be concluded that the duration of action of capsaicin at these doses is less than 2 minutes.
SUMMARY OF THE METHODOLOGY
The principle of the series of tests is to determine whether the compounds of the invention can influence the behavioral response induced by a specified amount of capsaicin. The capsaicin is initially diluted to 25 mM in DMSO and diluted, for final use, in physiological serum with Tween 80 at 10%. It appears, from control studies, that in these conditions the solvent has no effect.
In practice, the test product, prepared at 25 mM in DMSO and diluted for final use in physiological serum with 10% of Tween 80 at the strongest concentration of 500 μM, is administered by local application to the surface of the cornea at a volume of 2 μl, 10 minutes before application of the capsaicin. The animal receives an ocular instillation of 2 μl of a 160 μM capsaicin solution prepared as stated above. For an observation period of 2 minutes following instillation, the number of times the instilled eye is rubbed by the ipsilateral forepaw is counted for each animal.
For a given group, the percentage protection is calculated as follows: P=100−((average number of scratchings of the group treated with the compound/average number of scratchings of the group treated with the solvent)×100)
This percentage protection is averaged for each group of animals (n=number of animals tested with the compound of the invention).

TRPV1 receptor = target: T2, TRPV1 receptor (Rattus norvegicus, UniProt O35433); experiment: Test of inhibition of the current induced by capsaicin on the rat DRG (whole-cell patch-clamp); format: cell-based; conditions: inhibition of the capsaicin control response, primary culture of neonate rat DRG neurons
T2 construct: The neurons of the DRG express the TRPV1 receptor naturally; endogenous in cells; host or cells: primary culture of neonatal rat dorsal root ganglion neurons
T2 sequence (O35433 whole entry): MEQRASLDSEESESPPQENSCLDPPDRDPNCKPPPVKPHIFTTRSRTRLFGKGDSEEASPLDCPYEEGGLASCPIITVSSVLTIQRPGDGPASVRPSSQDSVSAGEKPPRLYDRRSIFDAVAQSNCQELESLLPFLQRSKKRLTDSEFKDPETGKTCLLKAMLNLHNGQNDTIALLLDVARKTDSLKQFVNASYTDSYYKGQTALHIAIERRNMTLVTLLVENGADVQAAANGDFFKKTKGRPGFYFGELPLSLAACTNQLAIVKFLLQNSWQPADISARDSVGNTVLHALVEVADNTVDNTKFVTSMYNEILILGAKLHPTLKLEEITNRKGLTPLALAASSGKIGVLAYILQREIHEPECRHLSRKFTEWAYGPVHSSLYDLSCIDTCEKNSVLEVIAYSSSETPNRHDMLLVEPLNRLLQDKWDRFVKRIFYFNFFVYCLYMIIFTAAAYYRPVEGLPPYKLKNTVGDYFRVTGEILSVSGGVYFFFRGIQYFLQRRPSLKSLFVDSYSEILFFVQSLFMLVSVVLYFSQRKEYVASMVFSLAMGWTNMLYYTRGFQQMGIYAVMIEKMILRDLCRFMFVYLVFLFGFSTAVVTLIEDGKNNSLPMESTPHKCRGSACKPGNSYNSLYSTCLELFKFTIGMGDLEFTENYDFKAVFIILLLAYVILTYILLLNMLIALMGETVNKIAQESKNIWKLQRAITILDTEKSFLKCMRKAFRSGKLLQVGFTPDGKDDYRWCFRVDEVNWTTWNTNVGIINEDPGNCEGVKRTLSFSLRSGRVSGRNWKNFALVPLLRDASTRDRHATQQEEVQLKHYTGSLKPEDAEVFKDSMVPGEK
Experimental: Test of Inhibition of the Current Induced by Capsaicin on the Rat DRG
Primary Culture of Rat Dorsal Root Ganglion (DRG) Cells:
The neurons of the DRG express the TRPV1 receptor naturally.
Primary cultures of DRG of neonate rats are prepared from 1-day-old rats. Briefly, after dissection, the ganglia are trypsinized and the cells are dissociated mechanically by careful trituration. The cells are resuspended in Eagle's basic culture medium containing 10% of fetal calf serum, 25 mM KCl, 2 mM glutamine, 100 μg/ml gentamicin and 50 ng/ml of NGF, then deposited on glass slides covered with laminin (0.25×10^6 cells per slide), which are then placed in Corning 12-well plates. The cells are incubated at 37° C. in a humidified atmosphere containing 5% CO2 and 95% air. Cytosine β-D-arabinoside (1 μM) is added 48 h after culture set-up, to prevent the development of non-neuronal cells. The slides are transferred to the test chambers for patch-clamp investigations after 7-10 days in culture.
The measuring chambers (volume 800 μl) containing the cellular preparation are placed on the stage of an inverted microscope (Olympus IMT2) fitted with Hoffman optics (Modulation Contrast, New York) and are observed at magnification of 400×. The chambers are continually perfused by gravity (2.5 ml/min) by means of a solution distributor accepting 8 inlets and whose single outlet, comprising a polyethylene tube (inside diameter 500 μm) is positioned at less than 3 mm from the cell under investigation. […] The total currents (membrane potential fixed at −60 mV) were recorded with an Axopatch 1D amplifier (Axon Instruments, Foster City, Calif.), connected to a PC controlled by Pclamp8 software (Axon Instrument). The current traces are recorded on paper and simultaneously digitized (sampling frequency […]) and saved to the hard disk of the PC.
The application of a micromolar solution of capsaicin induces a cationic input current on the DRG cells (voltage fixed at −70 mV). […] The results are expressed as percentage inhibition of the capsaicin control response.

| SMILES | % P 500 μM (percentage protection) (TRPV1 receptors) [%] | further results |
| --- | --- | --- |
| Cc1cc(N(C)C)ncc1NC(=O)c1cc2cc(C(F)(F)F)cnc2n1Cc1cccc(F)c1.Cl [Compound 3, N-(6-N,N-Dimethylamino-4-methyl-pyridin-3-yl)-5-trifluoromethyl-1-(3-fluorobenzyl)-1H-pyrrolo[2,3-b]pyridine-2-carboxamide hydrochloride (1:1)] | 34 | – |
| O=C(Nc1ccc(N2CCCC2)nc1)c1cc2cc(C(F)(F)F)cnc2n1Cc1cccc(F)c1 [Compound 6, N-[6-(Pyrrolidin-1-yl)pyridin-3-yl]-5-trifluoromethyl-1-(3-fluorobenzyl)-1H-pyrrolo[2,3-b]pyridine-2-carboxamide] | 30 | inhibition at 0.001 µM (TRPV1 receptor; DRG neuron, compound at 1 nM, read-out: Percentage inhibition in patch DRG): 71% |
| CNc1ccc(NC(=O)c2cc3cc(C(F)(F)F)cnc3n2Cc2cccc(F)c2)cn1 [Compound 1, N-[(6-Methylamino)pyridin-3-yl]-5-trifluoromethyl-1-(3-fluorobenzyl)-1H-pyrrolo[2,3-b]pyridine-2-carboxamide] | 51 | – |
| CN(C)c1ncc(NC(=O)c2cc3cc(C(F)(F)F)cnc3n2Cc2cccc(F)c2)cc1C(F)(F)F.Cl [Compound 4, N-(6-N,N-Dimethylamino-5-trifluoromethyl-pyridin-3-yl)-5-trifluoromethyl-1-(3-fluorobenzyl)-1H-pyrrolo[2,3-b]pyridine-2-carboxamide hydrochloride (1:1)] | – | Percentage inhibition in patch DRG (TRPV1 receptor; compound at 1 nM): 98% (1 nM) |
| O=C(Nc1ccc(N2CCCC2)nc1)c1cc2cc(C(F)(F)F)cnc2n1Cc1ccncc1 [Compound 9, N-[6-(Pyrrolidin-1-yl)pyridin-3-yl]-5-trifluoromethyl-1-[(4-pyridyl)methyl]-1H-pyrrolo[2,3-b]pyridine-2-carboxamide] | 43 | – |
| O=C(Nc1ccc(N2CCC2)nc1)c1cc2cc(C(F)(F)F)cnc2n1Cc1cccc(F)c1 [Compound 15, N-[6-(Azetidin-1-yl)pyridin-3-yl]-5-trifluoromethyl-1-(3-fluorobenzyl)-1H-pyrrolo[2,3-b]pyridine-2-carboxamide] | – | inhibition at 0.01 µM (TRPV1 receptor; DRG neuron, compound at 10 nM, read-out: Percentage inhibition in patch DRG): 100% |
| O=C(Nc1ccc(N2CCC(F)(F)C2)nc1)c1cc2cc(C(F)(F)F)cnc2n1Cc1cccc(F)c1 [Compound 12, N-[6-(3,3-difluoropyrrolidin-1-yl)pyridin-3-yl]-5-trifluoromethyl-1-(3-fluorobenzyl)-1H-pyrrolo[2,3-b]pyridine-2-carboxamide] | 83 | – |
